Test results reported in ChEMBL document CHEMBL5338818, “Discovery of the First Potent, Selective, and In Vivo Efficacious Polo-like Kinase 4 Proteolysis Targeting Chimera Degrader for the Treatment of TRIM37-Amplified Breast Cancer” (J Med Chem, 2023).
Active and inactive are the calls of the source. The calls are words filed in the database; no cut-off is given here.

What was measured:
[1] = molecular target: Protein cereblon/Serine/threonine-protein kinase PLK4 (Homo sapiens, UniProt O00444+Q96SW2); assay: Protac activity at CRBN/PLK4 in human MCF7 cells at 0.1 uM incubated for 48 hrs by Western blot analysis; format: cell-based
Chain of Protein cereblon/Serine/threonine-protein kinase PLK4 (Q96SW2 whole entry, looked up, one chain of several): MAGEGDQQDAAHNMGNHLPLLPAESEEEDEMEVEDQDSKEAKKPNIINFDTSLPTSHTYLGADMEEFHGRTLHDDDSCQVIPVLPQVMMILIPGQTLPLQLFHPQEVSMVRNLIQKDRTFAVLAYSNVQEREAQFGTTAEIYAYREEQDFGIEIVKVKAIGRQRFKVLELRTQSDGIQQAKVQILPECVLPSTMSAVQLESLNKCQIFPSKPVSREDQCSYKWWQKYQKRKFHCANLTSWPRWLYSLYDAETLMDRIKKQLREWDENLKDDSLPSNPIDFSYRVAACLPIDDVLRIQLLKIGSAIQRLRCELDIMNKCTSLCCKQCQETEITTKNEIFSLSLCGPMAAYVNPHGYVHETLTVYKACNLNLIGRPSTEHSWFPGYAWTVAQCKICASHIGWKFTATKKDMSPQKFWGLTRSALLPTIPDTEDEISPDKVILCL

[2] = system: MCF7; assay: Antiproliferative activity against human MCF7 cells measured at 4 to 8 days interval by cell counting analysis; format: functional, cell-based; conditions: time 4-8 day
[3] = molecular target: T1, Serine/threonine-protein kinase PLK4 (Homo sapiens) (UniProt O00444); assay: Inhibition of PLK4 in human MCF7 cells assessed as reduction in FBXW5 inactivation by Western blot analysis; format: cell-based; conditions: dose 1-1000 nM
T1 sequence (whole entry): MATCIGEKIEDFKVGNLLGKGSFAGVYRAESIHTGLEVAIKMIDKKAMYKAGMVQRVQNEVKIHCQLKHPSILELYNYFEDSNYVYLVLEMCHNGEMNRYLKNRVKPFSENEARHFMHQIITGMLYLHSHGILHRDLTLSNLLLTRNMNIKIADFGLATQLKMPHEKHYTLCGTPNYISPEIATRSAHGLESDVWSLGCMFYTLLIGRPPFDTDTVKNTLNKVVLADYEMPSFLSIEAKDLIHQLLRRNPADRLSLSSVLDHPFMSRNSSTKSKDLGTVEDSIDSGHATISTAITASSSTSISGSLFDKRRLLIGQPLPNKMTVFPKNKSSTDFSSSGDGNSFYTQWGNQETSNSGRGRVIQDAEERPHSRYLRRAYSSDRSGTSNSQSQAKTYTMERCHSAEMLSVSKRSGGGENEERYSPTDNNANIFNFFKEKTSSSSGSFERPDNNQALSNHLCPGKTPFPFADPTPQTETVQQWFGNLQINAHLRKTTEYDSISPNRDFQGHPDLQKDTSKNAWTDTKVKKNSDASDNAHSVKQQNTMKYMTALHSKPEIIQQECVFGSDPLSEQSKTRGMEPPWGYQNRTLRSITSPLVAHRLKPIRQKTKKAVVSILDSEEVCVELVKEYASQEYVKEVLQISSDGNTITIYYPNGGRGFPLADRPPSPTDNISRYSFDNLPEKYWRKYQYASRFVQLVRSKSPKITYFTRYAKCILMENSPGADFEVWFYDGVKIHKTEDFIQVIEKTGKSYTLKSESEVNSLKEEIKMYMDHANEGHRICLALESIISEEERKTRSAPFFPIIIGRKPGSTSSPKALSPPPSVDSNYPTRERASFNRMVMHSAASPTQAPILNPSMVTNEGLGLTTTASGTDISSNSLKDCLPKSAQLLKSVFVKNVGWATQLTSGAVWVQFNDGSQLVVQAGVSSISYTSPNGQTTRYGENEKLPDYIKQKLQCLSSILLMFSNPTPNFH

[4] = molecular target: T1, Serine/threonine-protein kinase PLK4 (Homo sapiens); assay: Inhibition of PLK4 in human MCF7 cells assessed as increase in SAS-6 degradation by Western blot analysis; format: cell-based; conditions: dose 1-1000 nM
[5] = system: MCF7; assay: Induction of apoptosis in human MCF7 cells at 0.3 to 3 uM incubated for 36 hrs by Annexin V-FITC//propidium iodide staining based flow cytometry analysis; format: functional, cell-based; conditions: dose 0.3-3 µM
[6] = system: MCF7; assay: Induction of cell cycle arrest at G2 phase in human MCF7 cells at 0.3 to 3 uM incubated for 36 hrs by Annexin V-FITC//propidium iodide staining based flow cytometry analysis; format: functional
[7] = Stability in human plasma assessed as compound remaining at 100 uM after 10 mins by LC-MS/MS analysis (reference value: 100%); format: ADME, cell-free; conditions: read-out: Stability
[8] = Stability in human plasma assessed as compound remaining at 100 uM after 60 mins by LC-MS/MS analysis (reference value: 100%); format: ADME, cell-free; conditions: read-out: Stability
[9] = Metabolic stability in human liver microsomes assessed as half life at 100 uM incubated for 60 mins in presence of NADPH by LC-MS/MS analysis; format: ADME, Microsome
[10] = Metabolic stability in rat liver microsomes assessed as half life at 100 uM incubated for 60 mins in presence of NADPH by LC-MS/MS analysis; format: ADME, Microsome
[11] = Metabolic stability in mouse liver microsomes assessed as intrinsic clearance at 100 uM incubated for 60 mins in presence of NADPH by LC-MS/MS analysis; format: ADME, Microsome; conditions: read-out: CLH
[12] = molecular target: T2, CYP1A2 (Homo sapiens, UniProt P05177); assay: Inhibition of CYP1A2 in human liver microsomes at 10 uM using alpha-Naphthoflavone as substrate preincubated for 10 mins followed by NADPH regenerating system addition and measured after 15 mins by LC-MS/MS analysis relative to control; format: ADME, Microsome; conditions: time 25 min
T2 sequence (P05177 whole entry): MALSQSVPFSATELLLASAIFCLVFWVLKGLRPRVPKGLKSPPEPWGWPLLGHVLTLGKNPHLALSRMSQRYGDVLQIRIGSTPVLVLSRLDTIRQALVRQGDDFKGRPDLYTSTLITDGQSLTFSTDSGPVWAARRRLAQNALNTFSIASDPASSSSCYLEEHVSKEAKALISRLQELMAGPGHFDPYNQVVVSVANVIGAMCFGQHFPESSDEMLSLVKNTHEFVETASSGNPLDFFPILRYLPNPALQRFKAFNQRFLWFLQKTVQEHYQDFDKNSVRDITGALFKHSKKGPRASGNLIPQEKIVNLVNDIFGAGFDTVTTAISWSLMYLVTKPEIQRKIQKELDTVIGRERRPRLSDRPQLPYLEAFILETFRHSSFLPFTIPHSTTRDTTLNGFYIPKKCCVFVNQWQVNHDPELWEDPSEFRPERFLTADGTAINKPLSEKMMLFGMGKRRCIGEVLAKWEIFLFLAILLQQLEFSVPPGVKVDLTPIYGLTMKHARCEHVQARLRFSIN

[13] = molecular target: CYP3A4 (Homo sapiens, UniProt P08684); assay: Inhibition of CYP3A4 in human liver microsomes at 10 uM using ketoconazole as substrate preincubated for 10 mins followed by NADPH regenerating system addition and measured after 15 mins by LC-MS/MS analysis relative to control; format: ADME, Microsome; conditions: time 25 min
Chain of CYP3A4 (P08684 whole entry): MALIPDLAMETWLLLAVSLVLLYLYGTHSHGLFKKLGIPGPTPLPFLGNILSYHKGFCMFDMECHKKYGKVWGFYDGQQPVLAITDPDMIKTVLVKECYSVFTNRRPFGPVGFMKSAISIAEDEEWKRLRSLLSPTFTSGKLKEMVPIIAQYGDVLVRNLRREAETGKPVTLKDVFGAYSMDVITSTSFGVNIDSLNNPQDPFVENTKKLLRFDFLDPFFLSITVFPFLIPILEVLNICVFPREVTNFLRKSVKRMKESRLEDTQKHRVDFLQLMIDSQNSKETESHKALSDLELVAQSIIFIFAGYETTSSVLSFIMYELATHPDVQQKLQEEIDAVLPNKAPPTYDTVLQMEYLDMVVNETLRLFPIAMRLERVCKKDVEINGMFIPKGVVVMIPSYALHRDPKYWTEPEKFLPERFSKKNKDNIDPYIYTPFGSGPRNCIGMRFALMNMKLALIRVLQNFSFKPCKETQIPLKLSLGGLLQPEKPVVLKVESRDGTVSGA

[14] = Observed AUC infinity in ICR mouse at 20 mg/kg, ip measured upto 24 hrs by LC-M/MS analysis; format: ADME, organism-based; parameters: dose 20 mg/kg, time < 24 hrs, route ip; conditions: in vivo
[15] = Tmax in ICR mouse at 20 mg/kg, ip measured upto 24 hrs by LC-M/MS analysis; format: ADME, organism-based; conditions: in vivo
[16] = Observed clearance in ICR mouse at 2 mg/kg, iv measured upto 24 hrs by LC-M/MS analysis; format: ADME, organism-based; conditions: in vivo
[17] = Observed mean […] time infinity in ICR mouse at 20 mg/kg, ip measured upto 24 hrs by LC-M/MS analysis; format: ADME, organism-based; conditions: in vivo
[18] = Bioavailability in ICR mouse at […] measured upto 24 hrs by LC-M/MS analysis; format: ADME, organism-based; conditions: in vivo
[19] = Efflux ratio of apparent permeability across basolateral to apical side over apical to basolateral side in human Caco-2 cells; format: ADME, cell-based
[20] = Toxicity in nu/nu mouse xenografted with human MCF7 cells assessed as change in body weight at 20 mg/kg, ip administered once every other day for 21 days; format: organism-based; conditions: in vivo, 504 h, time 21 day
[21] = Toxicity in nu/nu mouse xenografted with human MCF7 cells assessed as effect on lungs at 20 mg/kg, ip administered once every other day for 21 days by HE staining based analysis; format: organism-based; conditions: in vivo, 504 h, time 21 day

- Activity [1]: 68.3%
- inhibition [3]: Dose-Dependent Effect
- inhibition [4]: Dose-Dependent Effect
- remaining at 10 min, 100 µM [7]: 93.9%
- remaining at 1 h, 100 µM [8]: 83.6%
- half-life at 100 µM [9]: 1.06 h
- half-life at 100 µM [10]: 1.11 h
- microsomal CLint at 100 µM [11]: 17.1 µL/min/mg
- inhibition at 0.25 h, 10 µM [12]: 10.4%
- inhibition at 0.25 h, 10 µM [13]: 20.4%
- AUC(0-inf) [14]: 14200 ng·h/mL
- Tmax [15]: 1.42 h
- clearance [16]: 34.9 mL/min/kg
- Time [17]: 3.93 h
- bioavailability [18]: 149%
- efflux ratio [19]: 2.02
Structure (SMILES): Cc1cc(Nc2nc(NCc3ccc(F)cc3F)nc3c2cnn3C2CCN(C(=O)C3CCN(c4ccc5c(c4)C(=O)N(C4CCC(=O)NC4=O)C5=O)CC3)CC2)n[nH]1 (stereo unspecified)
- Activity [2]: Active
- Activity [5]: Dose-Dependent Effect
- Activity [6]: Dose-Dependent Effect
- Activity [20]: Non-Toxic
- Activity [21]: Non-Toxic
